# Assay results from ChEMBL document CHEMBL4390636, “Synthesis, spectroscopic characterization, molecular docking and theoretical studies (DFT) of N-(4-aminophenylsulfonyl)-2-(4-isobutylphenyl) propanamide having potential enzyme inhibition applications” (Bioorg Med Chem, 2019).
# Legend:
# Acetylcholinesterase [1] = biological target: T1, Acetylcholinesterase (Homo sapiens, UniProt P22303); experiment: Inhibition of AChE (unknown origin) at 0.5 mM using […] as substrate by Ellman method relative to untreated control
# Rattus norvegicus [2] = experiment: Anti-ulcer activity in Wistar rat model of ethanol-induced gastric ulcer model assessed as ulcer area at 50 mg/kg, po dosed 1 hr before ethanol injection relative to untreated control; type: functional
# Cholinesterase [3] = biological target: T2, Cholinesterase (Homo sapiens, UniProt P06276); experiment: Inhibition of BuChE (unknown origin) at 0.5 mM using butyrylthiocholine bromide as substrate by Ellman method relative to untreated control
# [4] = biological target: T3, Polyunsaturated fatty acid 5-lipoxygenase (Homo sapiens) (UniProt P09917); experiment: Inhibition of 5-LOX (unknown origin) relative to untreated control; conditions: concentration not given here
# T3 sequence (whole entry): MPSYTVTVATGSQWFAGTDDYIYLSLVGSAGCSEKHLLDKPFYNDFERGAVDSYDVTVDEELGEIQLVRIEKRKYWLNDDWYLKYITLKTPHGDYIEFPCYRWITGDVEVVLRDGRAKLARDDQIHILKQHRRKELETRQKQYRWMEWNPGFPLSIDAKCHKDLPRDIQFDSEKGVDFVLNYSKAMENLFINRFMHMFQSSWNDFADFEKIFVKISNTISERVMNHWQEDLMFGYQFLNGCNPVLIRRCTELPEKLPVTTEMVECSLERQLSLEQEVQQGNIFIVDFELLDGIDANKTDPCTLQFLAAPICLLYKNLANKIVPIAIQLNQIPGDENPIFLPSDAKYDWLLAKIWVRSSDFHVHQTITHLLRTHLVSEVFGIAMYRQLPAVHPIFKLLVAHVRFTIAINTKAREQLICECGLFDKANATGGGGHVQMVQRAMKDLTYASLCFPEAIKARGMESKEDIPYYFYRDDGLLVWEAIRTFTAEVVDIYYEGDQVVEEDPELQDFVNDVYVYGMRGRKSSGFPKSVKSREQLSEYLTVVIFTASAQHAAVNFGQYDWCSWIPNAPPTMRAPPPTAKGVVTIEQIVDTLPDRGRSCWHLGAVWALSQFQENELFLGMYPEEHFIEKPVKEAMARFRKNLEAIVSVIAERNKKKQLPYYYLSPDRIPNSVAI
# Cholinesterase [5] = biological target: T2, Cholinesterase; experiment: Inhibition of BuChE (unknown origin) using butyrylthiocholine bromide as substrate by Ellman method
# [6] = Toxicity in orally dosed Wistar rat monitored every hour for 12 hrs and then every day for 14 days; type: organism-based; conditions: in vivo, po
# Acetylcholinesterase [7] = biological target: T1, Acetylcholinesterase; experiment: Inhibition of AChE (unknown origin) using […] as substrate by Ellman method
# Rattus norvegicus [8] = experiment: Anti-inflammatory activity in Wistar rat assessed as inhibition of kaolin paw edema at 50 mg/kg, po dosed 1 hr before kaolin injection and measured 4 hrs after kaolin injection relative to untreated control; type: functional
# [9] = Antioxidant activity assessed as DPPH free radical scavenging activity at 0.25 mM relative to untreated control; type: functional
# [10] = Antioxidant activity assessed as DPPH free radical scavenging activity at 0.5 mM relative to untreated control; type: functional
# T2 sequence (P06276 whole entry): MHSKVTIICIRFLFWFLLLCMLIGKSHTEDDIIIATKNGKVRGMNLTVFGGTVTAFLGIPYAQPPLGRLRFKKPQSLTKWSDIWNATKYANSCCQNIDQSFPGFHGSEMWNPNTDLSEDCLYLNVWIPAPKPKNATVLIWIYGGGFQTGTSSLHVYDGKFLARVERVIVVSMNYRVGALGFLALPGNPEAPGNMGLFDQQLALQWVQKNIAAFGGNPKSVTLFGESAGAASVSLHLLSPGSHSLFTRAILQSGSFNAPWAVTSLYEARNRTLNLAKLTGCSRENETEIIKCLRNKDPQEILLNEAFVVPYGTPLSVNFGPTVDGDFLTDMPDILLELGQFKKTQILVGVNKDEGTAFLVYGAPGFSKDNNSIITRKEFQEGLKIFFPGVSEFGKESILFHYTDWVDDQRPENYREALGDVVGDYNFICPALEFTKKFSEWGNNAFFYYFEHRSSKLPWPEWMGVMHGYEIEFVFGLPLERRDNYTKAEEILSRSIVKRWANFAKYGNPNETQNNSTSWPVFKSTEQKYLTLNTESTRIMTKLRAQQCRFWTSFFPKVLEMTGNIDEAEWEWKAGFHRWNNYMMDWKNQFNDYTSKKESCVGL
# T1 sequence (P22303 whole entry): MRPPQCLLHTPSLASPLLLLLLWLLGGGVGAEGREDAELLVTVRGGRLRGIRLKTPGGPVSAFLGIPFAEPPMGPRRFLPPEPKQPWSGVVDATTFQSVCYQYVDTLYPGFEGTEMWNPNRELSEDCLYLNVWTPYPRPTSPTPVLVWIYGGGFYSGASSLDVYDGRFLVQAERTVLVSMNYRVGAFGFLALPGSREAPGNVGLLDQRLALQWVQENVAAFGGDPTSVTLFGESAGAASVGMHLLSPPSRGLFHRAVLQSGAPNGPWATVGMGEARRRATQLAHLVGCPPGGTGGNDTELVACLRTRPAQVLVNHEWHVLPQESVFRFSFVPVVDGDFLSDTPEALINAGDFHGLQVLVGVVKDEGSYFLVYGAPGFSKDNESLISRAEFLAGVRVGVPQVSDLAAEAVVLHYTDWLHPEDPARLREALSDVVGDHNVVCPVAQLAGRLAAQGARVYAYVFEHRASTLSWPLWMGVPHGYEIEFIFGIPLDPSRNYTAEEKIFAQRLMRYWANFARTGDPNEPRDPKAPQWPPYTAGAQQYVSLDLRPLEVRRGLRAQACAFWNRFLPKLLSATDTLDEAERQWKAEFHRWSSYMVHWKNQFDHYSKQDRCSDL
SMILES,inhibition (Acetylcholinesterase [1]),Activity (Rattus norvegicus [2]),inhibition (Cholinesterase [3]),inhibition [4],IC50 (Cholinesterase [5]),LD50 at 14 days [6],IC50 (Acetylcholinesterase [7]),inhibition in vivo at 50 mg/kg (Rattus norvegicus [8]),IC50 [9],inhibition [10]
CC(C)Cc1ccc(C(C)C(=O)NS(=O)(=O)c2ccc(N)cc2)cc1 (stereo not given),47.2%,8%,65.9%,48.4%,214.41 µmol,4050 mg/kg,< 600 µmol,75%,,
CC(C)Cc1ccc(C(C)C(=O)O)cc1 (stereo not given) [IBUPROFEN],61.2%,35%,35.5%,42.5%,< 600 µmol,630 mg/kg,235.11 µmol,45%,< 500 µmol,11.3%
O=c1c(O)c(-c2ccc(O)c(O)c2)oc2cc(O)cc(O)c12 [QUERCETIN],,,,,,,,,16.96 µmol,93.2%
Nc1ccc(S(N)(=O)=O)cc1 [SULFANILAMIDE],10.2%,10%,5.19%,,138.79 µmol,,,10%,,
